Values quoted from earlier work in patent US20250161389A1, “Herbal composition for the treatment of malaria” (RNA Therapeutics, Inc., priority 2023, published 2025).

System: Plasmodium
Conditions: isolated compound, best activity

Q: Which IC50 does the source give for `C=C(C)[C@@H]1CC[C@@]2(C)[C@H]1[C@@H]1CC[C@@H]3[C@@]4(C)CCC(=O)C(C)(C)[C@@H]4[C@H](O)C[C@@]3(C)[C@]1(C)C[C@@H]2O` [resinone (39), resinone] here?
A: < 1 µg/mL
